Test results as given in article PMC2600811 (Neuropharmacology, 2008).

How the values were obtained:
[1] = target: T1, rat mGluR1a (Rattus norvegicus, UniProt P23385); assay: Calcium mobilization; assay type: cell-based; settings: fixed 1 µM compound, 10 min pre-incubation
[2] = target: mGluR1a (Rattus norvegicus, UniProt P23385); assay: ERK1/2 phosphorylation assay; settings: for P-ERK1/2 response as % of the response to a maximal concentration of glutamate: 1 µM PAM, no exogenously added agonist
Chain of mGluR1a (P23385 19-1199): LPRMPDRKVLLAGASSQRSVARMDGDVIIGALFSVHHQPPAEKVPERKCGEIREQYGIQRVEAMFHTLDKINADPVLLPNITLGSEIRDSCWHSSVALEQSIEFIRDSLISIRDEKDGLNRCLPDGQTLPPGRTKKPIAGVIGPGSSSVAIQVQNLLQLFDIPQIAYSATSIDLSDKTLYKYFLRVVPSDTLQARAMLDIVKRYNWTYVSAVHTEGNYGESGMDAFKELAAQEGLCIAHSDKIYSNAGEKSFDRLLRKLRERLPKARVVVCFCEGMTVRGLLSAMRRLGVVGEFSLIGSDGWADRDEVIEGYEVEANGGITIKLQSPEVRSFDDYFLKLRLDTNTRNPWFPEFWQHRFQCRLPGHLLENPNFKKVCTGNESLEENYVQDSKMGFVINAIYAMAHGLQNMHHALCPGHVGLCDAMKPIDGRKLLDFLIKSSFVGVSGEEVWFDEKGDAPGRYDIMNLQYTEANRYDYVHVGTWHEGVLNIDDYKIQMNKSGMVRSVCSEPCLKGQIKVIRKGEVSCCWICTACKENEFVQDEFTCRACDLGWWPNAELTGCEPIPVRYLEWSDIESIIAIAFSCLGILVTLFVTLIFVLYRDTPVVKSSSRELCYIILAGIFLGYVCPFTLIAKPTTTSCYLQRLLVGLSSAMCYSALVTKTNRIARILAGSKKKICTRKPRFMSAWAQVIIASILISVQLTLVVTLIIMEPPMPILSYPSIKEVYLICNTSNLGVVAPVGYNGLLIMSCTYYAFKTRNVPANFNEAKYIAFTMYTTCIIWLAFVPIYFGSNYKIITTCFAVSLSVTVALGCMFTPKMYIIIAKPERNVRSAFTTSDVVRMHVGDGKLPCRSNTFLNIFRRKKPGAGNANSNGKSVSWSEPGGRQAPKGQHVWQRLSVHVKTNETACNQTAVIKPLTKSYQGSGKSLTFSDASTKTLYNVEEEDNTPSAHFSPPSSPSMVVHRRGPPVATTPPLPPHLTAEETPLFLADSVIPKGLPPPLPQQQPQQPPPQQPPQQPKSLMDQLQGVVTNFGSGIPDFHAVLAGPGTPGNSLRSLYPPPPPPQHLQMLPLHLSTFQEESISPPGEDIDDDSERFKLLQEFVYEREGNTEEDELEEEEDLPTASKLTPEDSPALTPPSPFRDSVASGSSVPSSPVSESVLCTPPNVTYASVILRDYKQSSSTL

[3] = target: T1, rat mGluR1a; settings: 500 nM compound, absence of glutamate
[4] = target: T2, rat mGlu1a receptor (Rattus norvegicus, UniProt P23385); settings: saturation binding, BHK-mGluR1a membranes
T2 sequence (P23385 19-1199): as above

[5] = target: T2, rat mGlu1a receptor; assay: biochemical

T1 sequence (P23385 19-1199): as above

leftward shift of the glutamate concentration-response curve (calcium) [1] | EC50 [2] [nM] | P-ERK1/2 response as % of the response to a maximal concentration of glutamate [2] [%] | increase of basal cAMP accumulation [3] | Bmax [4] | Kd [5] [nM] | SMILES | effect on basal ERK1/2 phosphorylation ([2]; antagonist alone (100 nM R214127 or 10 µM LY341495))
~4.5 fold | 163 ± 44.8 | 120.4 ± 1.9 | 8% |  |  | Cc1ccc(S(=O)(=O)N2CCC[C@H]2c2ccc(F)cc2)cc1 (racemic) [Ro 67-7476, (S)-2-(4-fluorophenyl)-1-(toluene-4-sulfonyl)pyrrolidine] | 
 |  |  |  | 3817 ± 226 fmol/mg of protein | 2.8 ± 0.3 | O=C(Cc1ccccc1)c1ccc2nc3c(cc2c1)CCCO3 [R214127, 1-(3,4-dihydro-2H-pyrano[2,3-b]quinolin-7-yl)-2-phenyl-1-ethanone] | does not effect basal ERK1/2 phosphorylation
approximately 2 fold |  | 119.5 ± 17.3 | approximately 7% |  |  | CCOC(=O)NC(=O)C(c1ccccc1)c1ccccc1 [Ro 01-6128, ethyl diphenylacetylcarbamate] | 
~15 fold | 9.2 ± 6.2 | 114.4 ± 29.0 | 30% |  |  | CCCCOC(=O)NC(=O)C1c2ccccc2Oc2ccccc21 [Ro 67-4853, butyl (9H-xanthene-9-carbonyl)carbamate] | 
